In publication PMC11551755, “Structure-based discovery of first inhibitors targeting the helicase activity of human PIF1” (Nucleic Acids Research, 2024):

Target: T1, FLhPIF1 (Homo sapiens, UniProt Q9H611)
T1 construct: Full length human PIF1 (FLhPIF1) was expressed and purified as a His-SUMO fusion; His-SUMO (cleaved yes); made in house; 'following similar protocols' to hPIF1HD (ArcticExpress BL21(DE3) E. coli)
T1 sequence (Q9H611 1-641): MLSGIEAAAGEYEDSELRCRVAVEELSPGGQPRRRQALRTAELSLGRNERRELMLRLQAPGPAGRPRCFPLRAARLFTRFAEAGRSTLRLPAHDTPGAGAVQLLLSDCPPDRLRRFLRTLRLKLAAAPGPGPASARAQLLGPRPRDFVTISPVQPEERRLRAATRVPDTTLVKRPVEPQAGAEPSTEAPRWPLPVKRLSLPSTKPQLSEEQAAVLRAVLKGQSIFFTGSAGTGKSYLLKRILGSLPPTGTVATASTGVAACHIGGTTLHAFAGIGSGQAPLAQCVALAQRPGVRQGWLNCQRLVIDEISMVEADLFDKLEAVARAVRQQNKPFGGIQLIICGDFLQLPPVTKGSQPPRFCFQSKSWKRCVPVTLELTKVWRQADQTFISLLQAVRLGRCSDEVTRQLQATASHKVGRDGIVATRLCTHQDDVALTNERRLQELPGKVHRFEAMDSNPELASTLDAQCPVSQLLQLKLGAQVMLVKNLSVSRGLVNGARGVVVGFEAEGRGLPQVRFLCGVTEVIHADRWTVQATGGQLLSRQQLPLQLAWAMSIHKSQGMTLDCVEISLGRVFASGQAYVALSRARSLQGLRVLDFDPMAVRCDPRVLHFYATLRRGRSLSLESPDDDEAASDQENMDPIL
Test: helicase assay after pre-incubation of SMI with FLhPIF1
Type: biochemical
Conditions: for pre-incubation time-course, inhibition of unwinding: 0–3 h pre-incubation, 100 nM FLhPIF1, 100 μM SMI, n = 4; for effect of pre-incubation on inhibition of unwinding: 100 μM SMI with 100 nM FLhPIF1, 1 h at 22°C, then 1:10 dilution, compared to no pre-incubation; for IC50: 2 h pre-incubation at 22°C with 100 nM FLhPIF1, then 1:10 dilution into helicase assay, read-out: IC50 for dsDNA unwinding by FLhPIF1 following pre-incubation
Protocol: Helicase activity was assayed using a radiometric strand displacement assay employing a partially single- and double-stranded substrate generated by annealing two oligonucleotides: 5′-(T)55-[…] and 5′-[…], as described previously ([19],[28]). The reaction buffer was 20 mM HEPES–NaOH pH 7.5, 20 mM NaCl, 5.5 mM MgCl2, 5 mM ATP, 1 mM DTT and 0.1 mg/ml BSA. SMIs (100 mM stocks in DMSO) were assayed at up to 2 mM without pre-incubation with FLhPIF1, unless otherwise stated. Reactions (0.1 nM substrate) were incubated at 37°C for 20 min, followed by addition of 0.2 volumes of 120 mM EDTA, 0.6% (w/v) SDS, 60% (v/v) glycerol and 0.1% (w/v) bromophenol blue before resolution of products by polyacrylamide gel electrophoresis (8%, 19:1 acrylamide:bis-acrylamide), 1× TBE (90 mM Tris–borate/2 mM EDTA, pH 8.3 with 0.05% (w/v) SDS buffer). Dried gels were exposed to phosphorimaging plates (Fujifilm) for imaging and quantification (Fuji FLA3000, image gauge V3.3 software). IC50 values were analysed by non-linear regression (variable slope) using GraphPad Prism.
First, we screened inhibitory activity of the SMIs listed in Table 1, following incubation of 100 nM FLhPIF1 with 100 μM SMI for 1 h at 22°C in the absence of substrates (ATP and DNA), before a 1:10 dilution into helicase reactions. […] Next, compounds 2, 5, 6 and 11, along with 4 and 1D were selected for analysis in a pre-incubation time-course (100 nM FLhPIF1, 100 μM SMI), up to 3 h before assaying helicase activity.
In parallel, IC50 values for inhibition of human UPF1 (hUPF1) helicase activity by the SMIs were also determined under the same conditions. UPF1-like SF1B helicases are the most closely related family of helicases to PIF1, with significant structural and mechanistic similarity ([52]).
Figure 6. SMI IC50 for dsDNA unwinding determined following pre-incubation. SMIs (0.0078–2 mM SMI) were incubated for 2 h at 22°C (100 nM FLhPIF1 or hUPF1) before dilution (1:10) in the standard helicase assay (0.1 nM DNA substrate). For 1D and 6, structures, electrophoresis of FLhPIF1 reaction product and graphs for IC50 value determination are shown. The graphed data include the activity of SMIs towards hUPF1 and IC50 values obtained are given. See Supplementary Figure S14 for the complete data set. TEXT PRINTED IN THE PICTURE: 1D: IC50 (μM): PIF1: 978 ± 221; IC50 (μM): UPF1: N.D. | 6: IC50 (μM): PIF1: 79.4 ± 16; IC50 (μM): UPF1: 1750 ± 426

Row | Structure (SMILES) | pre-incubation time-course, inhibition of unwinding | effect of pre-incubation on inhibition of unwinding | IC50 [µM]
1 | CC(=O)c1ccc(-c2csc(N)n2)cc1 [Compound 2] | increasing inhibition with increasing time of pre-incubation | significantly enhanced inhibitory activity | 65 ± 25
2 | N#Cc1ccc(-c2csc(N)n2)cc1 [Compound 5] | increasing inhibition with increasing time of pre-incubation | significantly enhanced inhibitory activity | 67.4 ± 20
3 | Nc1nc(-c2ccc(C(=O)c3ccccc3)cc2)cs1 [Compound 6] | increasing inhibition with increasing time of pre-incubation | significantly enhanced inhibitory activity | 79.4 ± 16
4 | CC(=O)Nc1ccc(-c2csc(N)n2)cc1-c1ccc(C)cc1 [Compound 10] | – | significantly enhanced inhibitory activity | –
5 | CC(=O)Nc1ccc(-c2csc(N)n2)cc1C1=CCNCC1 [Compound 11] | increasing inhibition with increasing time of pre-incubation | significantly enhanced inhibitory activity | 109 ± 47
